Reference: the NIST ThermoML archive (doi:10.1016/j.jct.2015.08.002)

Assay: mn = molality of the nth substance listed, in mol/kg
Conditions: 298 K, Wilhelmi plate tensiometer

CCCCCCCCCCCC(=O)[O-].[Na+] [sodium dodecanoate] + O
Conditions	surface tension liquid-gas [mN/m]
m1 = 0.001	64.1
m1 = 0.002	62.2
m1 = 0.003	57.6
m1 = 0.004	54.4
m1 = 0.005	54.5
m1 = 0.006	49.9
m1 = 0.007	45.8
m1 = 0.008	44.9
m1 = 0.009	44
m1 = 0.01	44.2
m1 = 0.0105	41.7
m1 = 0.011	41.6
m1 = 0.012	40.9
m1 = 0.013	37.4
m1 = 0.014	37.3
m1 = 0.015	37.9

CCCCCCCCCCCCP(=O)([O-])[O-].[Na+].[Na+] [sodium dodecylphosphonate] + O
Conditions	surface tension liquid-gas [mN/m]
m1 = 0.002	66.6
m1 = 0.004	58.5
m1 = 0.006	52.9
m1 = 0.008	53.5
m1 = 0.01	52.4
m1 = 0.012	49.6
m1 = 0.014	47.4
m1 = 0.016	44.4
m1 = 0.017	44
m1 = 0.0175	40.9
m1 = 0.018	40.1
m1 = 0.0185	39.4
m1 = 0.019	40.4
m1 = 0.02	39.3
m1 = 0.021	39.6
m1 = 0.025	38.2
m1 = 0.04	36.9
m1 = 0.05	39.3

CCCCCCCC/C=C\CCCCCCCC(=O)[O-].[Na+] [sodium oleate] + O
Conditions	surface tension liquid-gas [mN/m]
m1 = 5e-06	62.8
m1 = 1e-05	58
m1 = 2e-05	51.8
m1 = 3e-05	51.2
m1 = 4e-05	50.7
m1 = 5e-05	49.9
m1 = 0.0001	42
m1 = 0.0003	32.9
m1 = 0.0005	29.4
m1 = 0.0009	26.6
m1 = 0.0013	25.6
m1 = 0.0015	25.4
m1 = 0.0018	25.1
m1 = 0.002	25.2
m1 = 0.003	25.1
